Measured values as given in ChEMBL document CHEMBL1201862, “PubChem BioAssay data set” (2004).
The source made the active and inactive calls.

How the values were obtained:
[1] = HGIII-sPLA2 enzyme inhibition potency – biochemical, QFRET, IC50, dose response (AID 743457);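 also: green fluorescence rise as the enzyme cleaves BODIPY PC-A2 in liposomes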
[2] = molecular target: Luciferin 4-monooxygenase (Photinus pyralis, UniProt P08659); test: inhibition of purified Photinus pyralis luciferase – biochemical, luminescence, dose response (AID 1891)
[3] = molecular target: T1, Sentrin-specific protease 7 (Homo sapiens, UniProt Q9BQF6); format: functional;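 also: Luminescence-based dose-response confirmation of ultra-high-throughput screening hits, measuring inhibition of SENP7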
T1 sequence (Q9BQF6 whole entry): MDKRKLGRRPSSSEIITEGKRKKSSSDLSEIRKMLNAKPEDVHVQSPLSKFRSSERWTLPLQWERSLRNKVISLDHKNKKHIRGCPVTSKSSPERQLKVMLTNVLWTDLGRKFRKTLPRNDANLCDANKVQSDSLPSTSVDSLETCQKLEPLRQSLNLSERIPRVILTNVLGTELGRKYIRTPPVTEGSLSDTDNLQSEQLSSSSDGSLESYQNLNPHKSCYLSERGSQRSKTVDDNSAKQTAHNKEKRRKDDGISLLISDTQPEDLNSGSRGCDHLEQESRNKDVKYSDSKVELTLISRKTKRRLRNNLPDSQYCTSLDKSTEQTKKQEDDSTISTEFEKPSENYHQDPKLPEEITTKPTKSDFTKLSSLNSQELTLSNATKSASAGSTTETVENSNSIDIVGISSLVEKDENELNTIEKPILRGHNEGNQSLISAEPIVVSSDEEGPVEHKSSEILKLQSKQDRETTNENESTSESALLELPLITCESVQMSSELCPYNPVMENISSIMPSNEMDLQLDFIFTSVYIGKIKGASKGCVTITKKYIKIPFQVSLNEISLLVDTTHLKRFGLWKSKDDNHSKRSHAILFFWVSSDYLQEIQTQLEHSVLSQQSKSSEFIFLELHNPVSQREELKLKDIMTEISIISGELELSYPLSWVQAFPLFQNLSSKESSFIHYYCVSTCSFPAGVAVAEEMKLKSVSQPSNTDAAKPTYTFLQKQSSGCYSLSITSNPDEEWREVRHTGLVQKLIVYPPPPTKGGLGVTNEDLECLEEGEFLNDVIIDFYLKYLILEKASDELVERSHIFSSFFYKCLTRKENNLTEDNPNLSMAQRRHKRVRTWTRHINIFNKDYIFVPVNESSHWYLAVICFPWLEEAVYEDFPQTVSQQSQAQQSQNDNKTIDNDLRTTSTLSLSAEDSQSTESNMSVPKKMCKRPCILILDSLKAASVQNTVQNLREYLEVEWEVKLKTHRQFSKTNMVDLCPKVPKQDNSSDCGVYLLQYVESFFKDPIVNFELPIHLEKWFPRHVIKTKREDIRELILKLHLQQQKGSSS

[4] = molecular target: T2, Sentrin-specific protease 6 (Homo sapiens, UniProt Q9GZR1); format: functional;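 also: Luminescence-based dose-response confirmatory assay of SENP6 inhibition, following up an ultra-high-throughput screen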
T2 sequence (Q9GZR1 whole entry): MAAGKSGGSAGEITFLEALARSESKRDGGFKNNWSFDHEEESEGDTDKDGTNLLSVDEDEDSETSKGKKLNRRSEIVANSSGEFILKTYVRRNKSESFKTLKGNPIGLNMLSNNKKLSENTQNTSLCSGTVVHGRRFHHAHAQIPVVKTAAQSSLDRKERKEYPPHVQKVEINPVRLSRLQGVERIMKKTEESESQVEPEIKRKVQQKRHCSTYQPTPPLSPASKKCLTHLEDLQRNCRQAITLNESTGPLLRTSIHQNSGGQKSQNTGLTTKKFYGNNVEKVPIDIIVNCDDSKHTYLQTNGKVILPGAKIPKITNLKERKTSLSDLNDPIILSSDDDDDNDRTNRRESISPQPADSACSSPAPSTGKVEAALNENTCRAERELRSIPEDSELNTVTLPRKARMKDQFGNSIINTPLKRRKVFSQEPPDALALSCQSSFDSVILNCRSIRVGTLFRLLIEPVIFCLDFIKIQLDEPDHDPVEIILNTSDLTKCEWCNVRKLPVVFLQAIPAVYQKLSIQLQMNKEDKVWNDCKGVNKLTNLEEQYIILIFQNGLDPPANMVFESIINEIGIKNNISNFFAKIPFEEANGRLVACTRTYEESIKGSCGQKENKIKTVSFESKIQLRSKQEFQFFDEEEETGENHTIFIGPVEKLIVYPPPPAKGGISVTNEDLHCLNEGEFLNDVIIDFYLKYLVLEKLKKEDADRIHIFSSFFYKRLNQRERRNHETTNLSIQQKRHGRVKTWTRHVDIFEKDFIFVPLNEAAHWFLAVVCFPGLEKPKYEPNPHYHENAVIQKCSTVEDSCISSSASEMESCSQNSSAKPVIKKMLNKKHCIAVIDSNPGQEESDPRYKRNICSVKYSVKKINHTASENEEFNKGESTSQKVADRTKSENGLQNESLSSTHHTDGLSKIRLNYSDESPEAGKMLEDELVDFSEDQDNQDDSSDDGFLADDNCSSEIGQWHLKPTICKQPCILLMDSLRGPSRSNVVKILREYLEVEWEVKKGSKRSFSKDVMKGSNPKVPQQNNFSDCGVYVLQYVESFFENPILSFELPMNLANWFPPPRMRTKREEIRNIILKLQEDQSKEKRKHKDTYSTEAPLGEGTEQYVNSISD

[5] = general mammalian cell viability loss – inhibitor set, cherry-pick, set 2, cytotoxicity control for miR-122 modulator project, dose response (AID 720697); format: functional, cell-based
[6] = molecular target: T3, Probable nicotinate-nucleotide adenylyltransferase (Staphylococcus aureus (strain N315), UniProt P65502); format: functional, Staphylococcus aureus subsp. aureus N315;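 as to IC50 Mean: confirmatory dose-response retesting of NadD inhibitor hits first found in an ultra-high-throughput screen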
[7] = molecular target: T4, Caspase-3 (Homo sapiens, UniProt P42574); format: functional;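 also: Dose-response selectivity test against caspase-3 for candidate inhibitors of sentrin-specific proteases (SENPs)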
T4 sequence (P42574 whole entry): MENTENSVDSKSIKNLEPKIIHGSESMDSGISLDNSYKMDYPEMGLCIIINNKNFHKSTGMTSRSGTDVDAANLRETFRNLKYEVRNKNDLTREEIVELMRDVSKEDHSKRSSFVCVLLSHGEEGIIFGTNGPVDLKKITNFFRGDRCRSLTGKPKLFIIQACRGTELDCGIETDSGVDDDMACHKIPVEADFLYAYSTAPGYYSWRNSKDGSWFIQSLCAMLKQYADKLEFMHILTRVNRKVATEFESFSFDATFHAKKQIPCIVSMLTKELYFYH

[8] = Luminescence Cell-Based Dose Confirmation HTS to Identify Inhibitors of Platelet Dense Granule Release. [Related pubchem assays: 1663 (Primary HTS), 1678 (Summary of Project)]; format: functional
[9] = molecular target: T3, Probable nicotinate-nucleotide adenylyltransferase; format: functional, Staphylococcus aureus subsp. aureus N315; details: read-out: IC50_Mean
[10] = molecular target: T5, Sentrin-specific protease 8 (Homo sapiens, UniProt Q96LD8); format: functional;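 also: luminescence read-out of SENP8 inhibition, dose-response confirmation following an ultra-high-throughput screen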
T5 sequence (Q96LD8 whole entry): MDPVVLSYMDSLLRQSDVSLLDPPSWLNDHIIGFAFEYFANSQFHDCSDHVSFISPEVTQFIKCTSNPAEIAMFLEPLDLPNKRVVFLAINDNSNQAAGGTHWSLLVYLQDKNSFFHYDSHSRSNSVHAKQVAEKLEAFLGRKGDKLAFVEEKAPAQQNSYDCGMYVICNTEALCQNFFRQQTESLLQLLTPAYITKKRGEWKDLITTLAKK

[11] = molecular target: Tyrosyl-DNA phosphodiesterase 2 (Homo sapiens, UniProt O95551); test: potency against TDP2 phosphodiesterase activity – biochemical, epi absorbance, IC50, dose response (AID 743297)
[12] = OVCAR-3 cell viability loss – plate reader, dry powder samples, PAX8 inhibitor project, dose response (AID 743044); format: functional, cell-based
[13] = molecular target: Paired box protein Pax-8 (Homo sapiens, UniProt Q06710); test: PAX8 transcriptional activity inhibition in RMG-I – RMG-I cells, luciferase, cherry-pick, dose response (AID 687027); format: functional, cell-based;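 also: luciferase reporter driven by Pax8 target thyroperoxidase promoter measured by SteadyGlo luminescence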
[14] = CMV-driven luciferase expression suppression in HEK293 – cell-based, luminescence, dry powder, counter-screen for Pax8 inhibitor project, dose response (AID 743020); format: functional
[15] = OVCAR8 cell viability loss – plate reader, dry powder samples, PAX8 project, dose response (AID 743197); format: functional, cell-based; details: OVCAR-8
[16] = IGROV1 cell killing – plate reader, dry powder samples, PAX8 inhibitor project, dose response (AID 743043); format: functional, cell-based; details: IGROV-1
[17] = general cell-killing toxicity readout – plate reader, dry powder samples, cytotoxicity control for PAX8 inhibitor project, dose response (AID 743021); format: functional, cell-based
[18] = A2780 cell killing – plate reader, dry powder samples, cytotoxicity control, dose response (AID 743046); format: functional, cell-based
[19] = toxicity toward immortalized ovarian surface epithelium – cell-based, plate reader, dry powder samples, cytotoxicity control for PAX8 inhibitor project, dose response (AID 743045); format: functional
[20] = test system: Streptococcus; test: GAS UMAA2166 growth inhibition – luminescence, BacTiterGlo, counter-screen for streptokinase expression inhibitor project, dose response (AID 1915); format: functional, organism-based;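 also: potency for reduction of bacterial viability or growth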
[21] = cells; format: functional, cell-based
[22] = test system: INS1; test: INS-1E survival protection against cytokine death – cell-based, luminescence, retest, dose response (AID 449756); format: functional; details: Rattus norvegicus;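 also: cell death triggered by IL-1 beta plus TNF-alpha plus IFN-gamma mixture; protective hits raise ATP signal compared with cytokine alone wells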
[23] = cells; format: functional, cell-based; remark: listed apart in the source
[24] = test system: Streptococcus sp. 'group A'; test: Streptococcus pyogenes SK(-)GAS viability under kanamycin – luminescence, BacTiterGlo, confirmation, counter-screen for streptokinase expression inhibitor project, dose response (AID 1900); format: functional, organism-based
[25] = molecular target: Endoplasmic reticulum aminopeptidase 1 (Homo sapiens, UniProt Q9NZ08); test: inhibition of human ERAP1 enzyme activity – biochemical, cherry-pick, set 2, plate reader, dose response (AID 743314)
[26] = COV362 cell viability loss – plate reader, dry powder, SA12, cytotoxicity control for PAX8 inhibitor project, dose response (AID 743144); format: functional, cell-based
[27] = COV434 cell viability loss – plate reader, dry powder, SA7, cytotoxicity control for PAX8 inhibitor project, dose response (AID 743145); format: functional, cell-based
[28] = OV-90 cell viability loss – plate reader, dry powder, SA8, PAX8 inhibitor project, dose response (AID 743149); format: functional, cell-based
[29] = OVCAR4 cell viability loss – plate reader, dry powder, SA11, cytotoxicity control for PAX8 inhibitor project, dose response (AID 743150); format: functional, cell-based; details: OVCAR-4
[30] = molecular target: Kallikrein-7 (Homo sapiens, UniProt P49862); test: Fluorescence Intensity-based biochemical primary high throughput dose response assay to identify activators of kallikrein-7 (K7) zymogen.
Chain of Kallikrein-7 (P49862 whole entry): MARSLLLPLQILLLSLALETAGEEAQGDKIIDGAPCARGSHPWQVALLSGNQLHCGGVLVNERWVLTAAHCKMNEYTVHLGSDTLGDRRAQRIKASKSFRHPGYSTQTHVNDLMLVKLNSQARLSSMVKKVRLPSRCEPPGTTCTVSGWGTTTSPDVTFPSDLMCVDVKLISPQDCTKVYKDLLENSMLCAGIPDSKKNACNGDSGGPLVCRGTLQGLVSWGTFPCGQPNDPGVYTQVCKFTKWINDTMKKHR

T3 sequence (P65502 whole entry): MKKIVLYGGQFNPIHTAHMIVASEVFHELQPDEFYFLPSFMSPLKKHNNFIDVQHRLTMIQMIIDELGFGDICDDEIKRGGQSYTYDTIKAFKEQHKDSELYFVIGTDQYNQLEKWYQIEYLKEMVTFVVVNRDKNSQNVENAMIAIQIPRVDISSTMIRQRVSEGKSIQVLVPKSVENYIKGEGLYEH
Chain of Endoplasmic reticulum aminopeptidase 1 (Q9NZ08 whole entry): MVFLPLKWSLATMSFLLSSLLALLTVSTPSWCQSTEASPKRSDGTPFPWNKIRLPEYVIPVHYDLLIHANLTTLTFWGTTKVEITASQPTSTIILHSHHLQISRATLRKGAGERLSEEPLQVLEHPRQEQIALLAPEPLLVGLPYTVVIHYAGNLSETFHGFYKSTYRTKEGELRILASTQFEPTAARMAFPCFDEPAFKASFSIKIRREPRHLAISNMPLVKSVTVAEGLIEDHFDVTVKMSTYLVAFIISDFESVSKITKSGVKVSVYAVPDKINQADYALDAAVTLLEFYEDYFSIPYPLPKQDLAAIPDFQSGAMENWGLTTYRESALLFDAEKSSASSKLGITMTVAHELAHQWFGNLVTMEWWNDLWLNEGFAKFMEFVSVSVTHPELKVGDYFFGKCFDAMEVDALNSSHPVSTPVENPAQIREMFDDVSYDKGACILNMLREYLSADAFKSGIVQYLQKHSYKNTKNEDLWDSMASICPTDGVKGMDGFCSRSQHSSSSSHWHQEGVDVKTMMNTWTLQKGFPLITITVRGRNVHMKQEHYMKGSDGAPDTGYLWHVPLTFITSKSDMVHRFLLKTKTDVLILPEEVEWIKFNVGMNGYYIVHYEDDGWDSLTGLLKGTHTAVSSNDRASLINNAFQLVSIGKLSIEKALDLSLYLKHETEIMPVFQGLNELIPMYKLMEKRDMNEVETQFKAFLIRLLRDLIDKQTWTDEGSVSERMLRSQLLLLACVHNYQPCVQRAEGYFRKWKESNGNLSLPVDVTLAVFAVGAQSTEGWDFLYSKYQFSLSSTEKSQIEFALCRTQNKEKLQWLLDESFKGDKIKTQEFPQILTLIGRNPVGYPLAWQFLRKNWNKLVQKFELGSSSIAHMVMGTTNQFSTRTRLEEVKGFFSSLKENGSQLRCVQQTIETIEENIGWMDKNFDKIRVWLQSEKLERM
Chain of Paired box protein Pax-8 (Q06710 whole entry): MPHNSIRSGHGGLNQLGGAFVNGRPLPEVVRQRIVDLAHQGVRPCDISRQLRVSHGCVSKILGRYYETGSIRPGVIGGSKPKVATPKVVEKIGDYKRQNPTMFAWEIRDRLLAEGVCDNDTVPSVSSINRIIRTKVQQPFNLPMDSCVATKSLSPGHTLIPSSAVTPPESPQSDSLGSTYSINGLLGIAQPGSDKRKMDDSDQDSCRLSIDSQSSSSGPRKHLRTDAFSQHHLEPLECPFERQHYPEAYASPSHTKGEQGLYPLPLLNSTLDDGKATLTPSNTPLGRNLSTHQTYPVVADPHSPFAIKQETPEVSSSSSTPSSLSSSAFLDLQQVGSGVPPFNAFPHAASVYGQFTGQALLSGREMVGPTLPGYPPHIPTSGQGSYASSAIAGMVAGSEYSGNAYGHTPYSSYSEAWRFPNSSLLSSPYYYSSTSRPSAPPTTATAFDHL
Chain of Luciferin 4-monooxygenase (P08659 whole entry): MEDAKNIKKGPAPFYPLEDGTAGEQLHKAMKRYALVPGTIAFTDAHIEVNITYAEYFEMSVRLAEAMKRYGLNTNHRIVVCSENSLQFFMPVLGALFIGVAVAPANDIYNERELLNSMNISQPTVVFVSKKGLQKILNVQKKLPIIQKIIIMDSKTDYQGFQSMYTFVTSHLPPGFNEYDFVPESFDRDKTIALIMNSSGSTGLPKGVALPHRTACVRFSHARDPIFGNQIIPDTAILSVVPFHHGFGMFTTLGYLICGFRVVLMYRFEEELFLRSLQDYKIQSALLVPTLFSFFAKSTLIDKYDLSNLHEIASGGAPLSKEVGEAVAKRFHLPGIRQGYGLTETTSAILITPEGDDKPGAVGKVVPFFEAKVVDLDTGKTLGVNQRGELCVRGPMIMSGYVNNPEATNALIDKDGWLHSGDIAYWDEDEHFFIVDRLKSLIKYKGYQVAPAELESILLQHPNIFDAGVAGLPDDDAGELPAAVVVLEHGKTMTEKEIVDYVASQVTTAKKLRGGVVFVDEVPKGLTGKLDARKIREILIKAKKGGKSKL
Chain of Tyrosyl-DNA phosphodiesterase 2 (O95551 whole entry): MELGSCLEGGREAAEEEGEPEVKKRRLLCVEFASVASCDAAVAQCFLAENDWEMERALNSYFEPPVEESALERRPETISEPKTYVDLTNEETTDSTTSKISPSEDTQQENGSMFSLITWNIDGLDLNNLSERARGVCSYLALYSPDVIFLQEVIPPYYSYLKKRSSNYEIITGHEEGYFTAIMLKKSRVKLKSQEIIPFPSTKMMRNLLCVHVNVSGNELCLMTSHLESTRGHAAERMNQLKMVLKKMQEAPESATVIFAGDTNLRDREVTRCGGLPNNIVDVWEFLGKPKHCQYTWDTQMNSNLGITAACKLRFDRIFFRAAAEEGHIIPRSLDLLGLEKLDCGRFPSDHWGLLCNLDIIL

In the case of Cc1cccc(N=C(S)NNC(=O)c2ccc(O)cc2O)c1C, the IC50 [1] is reported as > 122 µM (inactive).

With COc1cccc(OCc2cc(/C=N/Nc3ccc(C(=O)O)cc3)ccc2OC)c1 the EC50 [2] was 4.64 µM (active), the IC50 [3] was 8.85 µM (active) and the IC50 [4] was 6.91 µM (active). The AC50 [5] was 7.48 µM (active), the IC50 [6] was 7.37 µM (active) and the IC50 [7] was 22.4 µM (active). The EC50 [8] was 84.7 µM (active), the IC50 [9] was 25.5 µM (active) and the IC50 [10] was 15.7 µM (active).

For Nc1c2c(O)nc(O)cc2nn1-c1ccccc1, the IC50 [11] was 79.9 µM (inactive).

For C[C@@H]1CN([C@H](C)CO)C(=O)c2cc(NS(=O)(=O)c3ccc(Cl)cc3)ccc2O[C@@H](C)CCCCO[C@H]1CN(C)Cc1ccc(C(F)(F)F)cc1, the AC50 [12] was 10.6 µM (active), the AC50 [13] was 6.62 µM (active) and the AC50 [14] was 31.8 µM (active). For the same compound, the AC50 [15] was 21.6 µM (active), the AC50 [16] was 21.3 µM (active) and the AC50 [17] was 3.68 µM (active). The AC50 [18] was 10.8 µM (active) and the AC50 [19] was 20.2 µM (active).

In the case of Cc1ccn2c(Nc3ccccc3C)c(-c3ccccn3)nc2c1, the EC50 [20] is reported as 6.24 µM (active), the EC50 [21] is reported as > 350 µM (not active) and the AC50 [22] is reported as 5.32 µM (active). For the same compound, the EC50 [23] was 146 µM (active), the IC50 [1] was 67.9 µM (inactive) and the EC50 [24] was 2.75 µM (active).

For CCC(=O)N(C)C[C@H]1Oc2ncc(C#Cc3ccncc3)cc2C(=O)N([C@H](C)CO)C[C@H]1C, the AC50 [25] was 2.92 µM (active).

With Cc1cc(=O)oc2c(CN3CCCC3)c(O)c(Cl)cc12 the AC50 [25] was 5.76 µM (active).

For CN1CC(=O)N2C(c3ccc(Cl)cc3)c3[nH]c4ccccc4c3C[C@H]2C1=O (stereo partly drawn), the AC50 [26] was 9.73 µM (active), the AC50 [13] was 10.3 µM (active) and the AC50 [27] was 21.4 µM (active). The AC50 [28] was > 100 µM (inactive) and the AC50 [29] was 10.3 µM (active).

In the case of COc1cc2ccccc2cc1C(=O)OCC(=O)N1CCOCC1, the EC50 [30] is reported as > 69.5 µM (inactive).
